From US10874743B2, “IRAK degraders and uses thereof” (Kymera Therapeutics, Inc., priority 2017, dated 2020)

Target: T1, IRAK4 (Homo sapiens, UniProt Q9NWZ3)
T1 sequence (Q9NWZ3 1-460): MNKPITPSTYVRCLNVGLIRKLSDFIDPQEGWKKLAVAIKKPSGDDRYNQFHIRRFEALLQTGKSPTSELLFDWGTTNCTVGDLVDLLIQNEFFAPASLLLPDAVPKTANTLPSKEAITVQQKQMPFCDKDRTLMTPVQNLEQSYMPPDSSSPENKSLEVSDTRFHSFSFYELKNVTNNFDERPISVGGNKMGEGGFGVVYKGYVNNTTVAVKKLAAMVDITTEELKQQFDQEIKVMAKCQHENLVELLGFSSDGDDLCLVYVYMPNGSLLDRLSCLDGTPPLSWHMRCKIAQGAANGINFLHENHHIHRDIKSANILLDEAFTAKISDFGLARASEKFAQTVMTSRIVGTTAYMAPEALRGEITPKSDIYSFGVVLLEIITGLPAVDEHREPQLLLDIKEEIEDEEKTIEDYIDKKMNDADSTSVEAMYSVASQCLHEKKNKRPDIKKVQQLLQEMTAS
Assay: PBMC degradation assay (western blot, % IRAK4 degraded after 4 hours)
Format: cell-based
Conditions: human PBMCs
Method: Protocol summary of PBMC degradation studies from compound treatment through quantitation.
PBMC culture medium: Human peripheral blood mononuclear cells (PBMCs): RPMI+10% FBS (Heat-inactivated)+1% P/S.
Cells were cultured at a minimum of 2.5×10^6 c/mL. • PBMCs were incubated @ 37° C./5% CO2 and allowed to rest overnight. • Following overnight recovery, a cell count/viability assessment by trypan blue exclusion was performed. Cells densities were adjusted back to 2.5×10^6 c/mL (proceed with plating only if viability >80%). • In a 6 well plate, 2.0 mL of cells were added to each well for a minimum of 5×10^6 CT per treatment condition. Compounds dilutions were prepared from 20 mM stock and were added at a final 1000× dilution (0.1% DMSO concentration). • At the end of treatment, cells were harvested and spun @ 1800 rpm for 5 min. 1×PBS wash and spun again @ 1800 rpm for 5 min. Cell pellets were frozen and stored at −80° C. until further processing. • Lysates were generated by resuspending in lysis buffer. Protein quantification was performed with a BCA kit. • 20 μg of protein were loaded per lane and run on a 26-well 4-12% Bis-Tris SDS-page gel. • Transfers were performed on PVDF membranes using the BioRad Mixed MW turbo program for 7 min. • Membranes were blocked for one hour on a rocker at room temperature. • Primary antibodies were incubated overnight at 4° C. on a rocker. • Membranes were washed 3×TBST, 5 min each. • Secondaries were added and incubated for one hour on a rocker at room temperature. • Membranes were washed 3×TBST, 5 min each and rinsed well with deionized H2O. Membranes were scanned using the Licor Odessey CLx and bands were quantified using Image Studio Lite Version 5.2 software.
PBMC results at 4 hours. The letter codes indicate the percentage of IRAK4 degraded after 4 hours: A (>50% degradation), B (>20-50% degradation) and C (<20% degradation)

Row | PBMC % IRAK4 Degradation | SMILES
1 | C (<20% degradation) | O=C1CCC(N2C(=O)c3cccc(NCCOCCOCCNC(=O)c4ccc(-n5cc(NC(=O)c6coc(-c7ccnc(NCC(F)(F)F)c7)n6)c(C(F)(F)F)n5)cc4)c3C2=O)C(=O)N1 (stereo not shown) [I-134]
2 | A (>50% degradation) | NC(=O)c1nn(-c2ccc(C(=O)NCCCCCNC(=O)COc3cccc4c3C(=O)N(C3CCC(=O)NC3=O)C4=O)cc2)cc1NC(=O)c1coc(-c2ccnc(NCC(F)(F)F)c2)n1 (stereo not shown) [I-106, N-[3-carbamoyl-1-[4-[5-[[2-[2-(2,6-dioxo-3-piperidyl)-1,3-dioxo-isoindolin-4-yl]oxyacetyl]amino]pentylcarbamoyl]phenyl]pyrazol-4-yl]-2-[2-(2,2,2-trifluoroethylamino)-4-pyridyl]oxazole-4-carboxamide]
3 | C (<20% degradation) | NC(=O)c1nn(C2CCN(C(=O)NCCOCCOCCNc3cccc4c3C(=O)N(C3CCC(=O)NC3=O)C4=O)CC2)cc1NC(=O)c1coc(-c2ccnc(NCC(F)(F)F)c2)n1 (stereo not shown) [I-145, N-[3-carbamoyl-1-[1-[2-[2-[2-[[2-(2,6-dioxo-3-piperidyl)-1,3-dioxo-isoindolin-4-yl]amino]ethoxy]ethoxy]ethylcarbamoyl]-4-piperidyl]pyrazol-4-yl]-2-[2-(2,2,2-trifluoroethylamino)-4-pyridyl]oxazole-4-carboxamide]
4 | A (>50% degradation) | NC(=O)c1nn(-c2ccc(C(=O)NCCCNC(=O)COc3cccc4c3C(=O)N(C3CCC(=O)NC3=O)C4=O)cc2)cc1NC(=O)c1coc(-c2ccnc(NCC(F)(F)F)c2)n1 (stereo not shown) [I-112]
5 | C (<20% degradation) | NC(=O)c1nn(C2CN(C(=O)COCCOCCOCCNc3cccc4c3C(=O)N(C3CCC(=O)NC3=O)C4=O)C2)cc1NC(=O)c1coc(-c2ccnc(NCC(F)(F)F)c2)n1 (stereo not shown) [I-158]
6 | B (>20-50% degradation) | NC(=O)c1nn(C2CCN(C(=O)COCCOCCNc3cccc4c3C(=O)N(C3CCC(=O)NC3=O)C4=O)CC2)cc1NC(=O)c1coc(-c2ccnc(NCC(F)(F)F)c2)n1 (stereo not shown) [I-154]
7 | A (>50% degradation) | NC(=O)c1nn(-c2ccc(C(=O)NCCCOCCCNc3cccc4c3C(=O)N(C3CCC(=O)NC3=O)C4=O)cc2)cc1NC(=O)c1coc(-c2ccnc(NCC(F)(F)F)c2)n1 (stereo not shown) [I-141]
8 | A (>50% degradation) | NC(=O)c1nn(-c2ccc(C(=O)NCCOCCOCCOCCOCCNc3cccc4c3C(=O)N(C3CCC(=O)NC3=O)C4=O)cc2)cc1NC(=O)c1coc(-c2ccnc(NCC(F)(F)F)c2)n1 (stereo not shown) [I-53]
9 | C (<20% degradation) | NC(=O)c1nn(C2CN(C(=O)COCCOCCNc3cccc4c3C(=O)N(C3CCC(=O)NC3=O)C4=O)C2)cc1NC(=O)c1coc(-c2ccnc(NCC(F)(F)F)c2)n1 (stereo not shown) [I-156]
10 | C (<20% degradation) | NC(=O)c1nn(-c2ccc(C(=O)NCCOCCOCCOCCNC(=O)COc3cccc4c3C(=O)N(C3CCC(=O)NC3=O)C4=O)cc2)cc1NC(=O)c1coc(-c2ccnc(NCC(F)(F)F)c2)n1 (stereo not shown) [I-108]
11 | B (>20-50% degradation) | NC(=O)c1nn(-c2ccc(C(=O)NCCCCNC(=O)COc3cccc4c3C(=O)N(C3CCC(=O)NC3=O)C4=O)cc2)cc1NC(=O)c1coc(-c2ccnc(NCC(F)(F)F)c2)n1 (stereo not shown) [I-111]
12 | B (>20-50% degradation) | NC(=O)c1nn(-c2ccc(C(=O)NCCc3cn(CCCNc4cccc5c4C(=O)N(C4CCC(=O)NC4=O)C5=O)nn3)cc2)cc1NC(=O)c1coc(-c2ccnc(NCC(F)(F)F)c2)n1 (stereo not shown) [I-181, N-[3-carbamoyl-1-[4-[2-[1-[3-[[2-(2,6-dioxo-3-piperidyl)-1,3-dioxo-isoindolin-4-yl]amino]propyl]triazol-4-yl]ethylcarbamoyl]phenyl]pyrazol-4-yl]-2-[2-(2,2,2-trifluoroethylamino)-4-pyridyl]oxazole-4-carboxamide]
13 | A (>50% degradation) | NC(=O)c1nn(-c2ccc(C(=O)NCCOCCOCCOCCNc3cccc4c3C(=O)N(C3CCC(=O)NC3=O)C4=O)cc2)cc1NC(=O)c1coc(-c2ccnc(NCC(F)(F)F)c2)n1 (stereo not shown) [I-128]
14 | A (>50% degradation) | O=C1CCC(N2C(=O)c3cccc(NCCNCCCCCNC(=O)c4ccc(-n5cc(NC(=O)c6coc(-c7ccnc(NCC8CC8)c7)n6)c(C(F)(F)F)n5)cc4)c3C2=O)C(=O)N1 (stereo not shown) [I-150]
15 | C (<20% degradation) | NC(=O)c1nn(-c2ccc(C(=O)NCCCCCCCCCCCNC(=O)COc3cccc4c3C(=O)N(C3CCC(=O)NC3=O)C4=O)cc2)cc1NC(=O)c1coc(-c2ccnc(NCC(F)(F)F)c2)n1 (stereo not shown) [I-104]
16 | A (>50% degradation) | NC(=O)c1nn(-c2ccc(C(=O)NCCNCCCCCNc3cccc4c3C(=O)N(C3CCC(=O)NC3=O)C4=O)cc2)cc1NC(=O)c1coc(-c2ccnc(NCC(F)(F)F)c2)n1 (stereo not shown) [I-144, N-[3-carbamoyl-1-[4-[2-[5-[[2-(2,6-dioxo-3-piperidyl)-1,3-dioxo-isoindolin-4-yl]amino]pentylamino]ethylcarbamoyl]phenyl]pyrazol-4-yl]-2-[2-(2,2,2-trifluoroethylamino)-4-pyridyl]oxazole-4-carboxamide]
17 | A (>50% degradation) | NC(=O)c1nn(-c2ccc(CNCCOCCOCCNc3cccc4c3C(=O)N(C3CCC(=O)NC3=O)C4=O)cc2)cc1NC(=O)c1coc(-c2ccnc(NCC(F)(F)F)c2)n1 (stereo not shown) [I-171, N-[3-carbamoyl-1-[4-[[2-[2-[2-[[2-(2,6-dioxo-3-piperidyl)-1,3-dioxo-isoindolin-4-yl]amino]ethoxy]ethoxy]ethylamino]methyl]phenyl]pyrazol-4-yl]-2-[2-(2,2,2-trifluoroethylamino)-4-pyridyl]oxazole-4-carboxamide]
18 | A (>50% degradation) | CN(CCOCCOCCNc1cccc2c1C(=O)N(C1CCC(=O)NC1=O)C2=O)C(=O)c1ccc(-n2cc(NC(=O)c3coc(-c4ccnc(NCC(F)(F)F)c4)n3)c(C(N)=O)n2)cc1 (stereo not shown) [I-159, N-[3-carbamoyl-1-[4-[2-[2-[2-[[2-(2,6-dioxo-3-piperidyl)-1,3-dioxo-isoindolin-4-yl]amino]ethoxy]ethoxy]ethyl-methyl-carbamoyl]phenyl]pyrazol-4-yl]-2-[2-(2,2,2-trifluoroethylamino)-4-pyridyl]oxazole-4-carboxamide]
19 | C (<20% degradation) | NC(=O)c1nn(C2CCN(C(=O)COCCOCCOCCNc3cccc4c3C(=O)N(C3CCC(=O)NC3=O)C4=O)CC2)cc1NC(=O)c1coc(-c2ccnc(NCC(F)(F)F)c2)n1 (stereo not shown) [I-152, N-[3-carbamoyl-1-[1-[2-[2-[2-[2-[[2-(2,6-dioxo-3-piperidyl)-1,3-dioxo-isoindolin-4-yl]amino]ethoxy]ethoxy]ethoxy]acetyl]-4-piperidyl]pyrazol-4-yl]-2-[2-(2,2,2-trifluoroethylamino)-4-pyridyl]oxazole-4-carboxamide]
20 | A (>50% degradation) | NC(=O)c1nn(-c2ccc(C(=O)NCCOCCOCCNc3cccc4c3CN(C3CCC(=O)NC3=O)C4=O)cc2)cc1NC(=O)c1coc(-c2ccnc(NCC(F)(F)F)c2)n1 (stereo not shown) [I-117, N-(3-carbamoyl-1-(4-((2-(2-(2-((2-(2,6-dioxopiperidin-3-yl)-1-oxoisoindolin-4-yl)amino)ethoxy)ethoxy)ethyl)carbamoyl)phenyl)-1H-pyrazol-4-yl)-2-(2-((2,2,2-trifluoroethyl)amino)pyridin-4-yl)oxazole-4-carboxamide]
21 | C (<20% degradation) | O=C1CCC(N2C(=O)c3cccc(NCCOCCOCCNCc4cccc(-n5cc(NC(=O)c6coc(-c7ccnc(NCC8CC8)c7)n6)c(C(F)(F)F)n5)c4)c3C2=O)C(=O)N1 (stereo not shown) [I-186, 2-[2-(Cyclopropylmethylamino)-4-pyridyl]-N-[1-[3-[[2-[2-[2-[[2-(2,6-dioxo-3-piperidyl)-1,3-dioxo-isoindolin-4-yl]amino]ethoxy]ethoxy]ethylamino]methyl]phenyl]-3-(trifluoromethyl)pyrazol-4-yl]oxazole-4-carboxamide]

Row | SMILES | PBMC % IRAK4 Degradation
22 | O=C1CCC(N2C(=O)c3cccc(NCCOCCOCCNCc4ccc(-n5cc(NC(=O)c6coc(-c7ccnc(NCC8CC8)c7)n6)c(C(F)(F)F)n5)cc4)c3C2=O)C(=O)N1 (stereo not shown) [I-185, 3-2-(2-((Cyclopropylmethyl)amino)pyridin-4-yl)-N-(1-(4-(((2-(2-(2-((2-(2,6-dioxopiperidin-3-yl)-1,3-dioxoisoindolin-4-yl)amino)ethoxy)ethoxy)ethyl)amino)methyl)phenyl)-3-(trifluoromethyl)-1H-pyrazol-4-yl)oxazole-4-carboxamide] | A (>50% degradation)
